Experimental data: patent publication US20050112573A1, “Method of detecting toxic substance” (priority 2001, published 2005)

System: yeast genes (level of expressed mRNA)
Assay: DNA chip analysis of expressed mRNA of yeast genes after 2 h culture with a toxic chemical substance
Type: cell-based, Saccharomyces cerevisiae S288C
Description: Yeast (Saccharomyces cerevtisiae S288C (α SUC2mal mel gap2 CUP1)) were cultured at 25° C. on YPD medium (yeast extract 1%, polypepton 2%, glucose 2%). One of toxic chemical substances was added to the cell at logarithmic growth phase, and the cell was further cultured for two hours. Cell was cultured without any chemical substance in the same condition, and was used as control. Concentrations of the chemical substances were defined to inhibit the growth of the yeast but not lead to death.
After the completion of cultivation, the culture was centrifuged to collect the cells. To the cells, sodium acetate buffer (50 mM sodium acetate, 10 mM EDTA, 1% SDS) was added, and the mixture was shaken at 65° C. for five minutes, followed by returning to room temperature, and obtaining the supernatant, which procedure was repeated two times. To the supernatant, ½ amount of a solution of phenol/chloroform was added, and the mixture was centrifuged to give a supernatant, which was added with an equal amount of chloroform, and the mixture was centrifuged to give a supernatant. To the supernatant, an equal amount of isopropanol containing 0.3 M sodium acetate was added, and the mixture was allowed to stand at room temperature for 30 minutes, after which the mixture was centrifuged to give a sediment of the whole RNAs. Seventy % ethanol was added to the sediment, and the mixture was again centrifuged to give a sediment, which was then dried and dissolved in water. mRNA was isolated from the whole RNAs as followings. In view of the fact that a poly A chain is attached to the 3′ terminus of mRNA, a polynucleotide having a poly T structure which was immobilized on the surface of latex beads was used to trap the mRNA, and then the mRNA was washed and eluted with spine column (Oligotex-dT30<Super>mRNA Purification Kit, Takara). Reverse transcription of the mRNA was conducted with a reverse transcriptase (Super Script II Reverse Transcriptase; catalogue No. 18064-014, GibcoBRL) using fluorescence-labeled nucleotides to give cDNAs that were introduced with Cy3-dUTP or Cy5-dUTP during the reverse transcription.
The labeled cDNAs were dissolved in TE buffer (10 mM Tris-HCl/1 mM EDTA, pH8.0), and the solution was dropped on the DNA chip containing the whole genes of yeast (DNA Chip Research Inc. Japan) so that the cDNAs were hybridized on the DNA chip at 65° C. for over 12 hours. The fluoresces intensity of the DNA chip was read with a scanner, and the ratio relative to the fluorescence intensity resulting from the absence of chemical substance was estimated as the following, which is shown in Tables 1 to 9: [formula]
In the Tables, “Intensity” indicated in the rightmost column is a value of the level of expressed mRNA of each gene in control cells as divided by the average level of the expressions of the whole genes.

Oc1cc(Cl)c(Cl)cc1Cl [(6), 2,4,5-trichlorophenol]
The level of expressed mRNA in the presence of chemical substance/The level of expressed mRNA in the absence of chemical substance (yeast gene YKL013C): 1.9
The level of expressed mRNA in the presence of chemical substance/The level of expressed mRNA in the absence of chemical substance (yeast gene YKL039W): 4.9
The level of expressed mRNA in the presence of chemical substance/The level of expressed mRNA in the absence of chemical substance (yeast gene YKL041W): 2.2
The level of expressed mRNA in the presence of chemical substance/The level of expressed mRNA in the absence of chemical substance (yeast gene YKL096W): 0.6
The level of expressed mRNA in the presence of chemical substance/The level of expressed mRNA in the absence of chemical substance (yeast gene YKL165C): 0.6
The level of expressed mRNA in the presence of chemical substance/The level of expressed mRNA in the absence of chemical substance (yeast gene YKL193C): 0.9
The level of expressed mRNA in the presence of chemical substance/The level of expressed mRNA in the absence of chemical substance (yeast gene YLR120C): 1.9
The level of expressed mRNA in the presence of chemical substance/The level of expressed mRNA in the absence of chemical substance (yeast gene YLR136C): 1.7
The level of expressed mRNA in the presence of chemical substance/The level of expressed mRNA in the absence of chemical substance (yeast gene YLR178C): 4.2
The level of expressed mRNA in the presence of chemical substance/The level of expressed mRNA in the absence of chemical substance (yeast gene YLR250W): 1.1
The level of expressed mRNA in the presence of chemical substance/The level of expressed mRNA in the absence of chemical substance (yeast gene YLR327C): 5.1
The level of expressed mRNA in the presence of chemical substance/The level of expressed mRNA in the absence of chemical substance (yeast gene YLR356W): 3.4
The level of expressed mRNA in the presence of chemical substance/The level of expressed mRNA in the absence of chemical substance (yeast gene YLR362W): 0.8
The level of expressed mRNA in the presence of chemical substance/The level of expressed mRNA in the absence of chemical substance (yeast gene YLR391W): 1.5
The level of expressed mRNA in the presence of chemical substance/The level of expressed mRNA in the absence of chemical substance (yeast gene YLR429W): 0.8
The level of expressed mRNA in the presence of chemical substance/The level of expressed mRNA in the absence of chemical substance (yeast gene YMR004W): 0.5
The level of expressed mRNA in the presence of chemical substance/The level of expressed mRNA in the absence of chemical substance (yeast gene YMR094W): 0.5
The level of expressed mRNA in the presence of chemical substance/The level of expressed mRNA in the absence of chemical substance (yeast gene YMR104C): 1.9
The level of expressed mRNA in the presence of chemical substance/The level of expressed mRNA in the absence of chemical substance (yeast gene YMR219W): 0.8
The level of expressed mRNA in the presence of chemical substance/The level of expressed mRNA in the absence of chemical substance (yeast gene YMR226C): 2.6
The level of expressed mRNA in the presence of chemical substance/The level of expressed mRNA in the absence of chemical substance (yeast gene YMR275C): 1.4
The level of expressed mRNA in the presence of chemical substance/The level of expressed mRNA in the absence of chemical substance (yeast gene YMR276W): 0.8
The level of expressed mRNA in the presence of chemical substance/The level of expressed mRNA in the absence of chemical substance (yeast gene YMR314W): 1.3
The level of expressed mRNA in the presence of chemical substance/The level of expressed mRNA in the absence of chemical substance (yeast gene YNL006W): 1.0
The level of expressed mRNA in the presence of chemical substance/The level of expressed mRNA in the absence of chemical substance (yeast gene YNL007C): 0.6
The level of expressed mRNA in the presence of chemical substance/The level of expressed mRNA in the absence of chemical substance (yeast gene YNL093W): 1.6
The level of expressed mRNA in the presence of chemical substance/The level of expressed mRNA in the absence of chemical substance (yeast gene YNL333W): 1.5
The level of expressed mRNA in the presence of chemical substance/The level of expressed mRNA in the absence of chemical substance (yeast gene YNR010W): 1.3
The level of expressed mRNA in the presence of chemical substance/The level of expressed mRNA in the absence of chemical substance (yeast gene YNR069C): 1.7
The level of expressed mRNA in the presence of chemical substance/The level of expressed mRNA in the absence of chemical substance (yeast gene YOL013C): 1.1
The level of expressed mRNA in the presence of chemical substance/The level of expressed mRNA in the absence of chemical substance (yeast gene YOL164W): 1.2
The level of expressed mRNA in the presence of chemical substance/The level of expressed mRNA in the absence of chemical substance (yeast gene YOR036W): 1.7
The level of expressed mRNA in the presence of chemical substance/The level of expressed mRNA in the absence of chemical substance (yeast gene YOR117W): 1.1
The level of expressed mRNA in the presence of chemical substance/The level of expressed mRNA in the absence of chemical substance (yeast gene YOR124C): 0.9
The level of expressed mRNA in the presence of chemical substance/The level of expressed mRNA in the absence of chemical substance (yeast gene YOR132W): 1.6
The level of expressed mRNA in the presence of chemical substance/The level of expressed mRNA in the absence of chemical substance (yeast gene YOR157C): 1.2
The level of expressed mRNA in the presence of chemical substance/The level of expressed mRNA in the absence of chemical substance (yeast gene YOR181W): 0.9
The level of expressed mRNA in the presence of chemical substance/The level of expressed mRNA in the absence of chemical substance (yeast gene YOR185C): 3.0
The level of expressed mRNA in the presence of chemical substance/The level of expressed mRNA in the absence of chemical substance (yeast gene YOR198C): 0.9
The level of expressed mRNA in the presence of chemical substance/The level of expressed mRNA in the absence of chemical substance (yeast gene YOR259C): 0.8
The level of expressed mRNA in the presence of chemical substance/The level of expressed mRNA in the absence of chemical substance (yeast gene YOR261C): 1.4
The level of expressed mRNA in the presence of chemical substance/The level of expressed mRNA in the absence of chemical substance (yeast gene YOR288C): 1.0
The level of expressed mRNA in the presence of chemical substance/The level of expressed mRNA in the absence of chemical substance (yeast gene YOR355W): 1.6
The level of expressed mRNA in the presence of chemical substance/The level of expressed mRNA in the absence of chemical substance (yeast gene YOR383C): 6.8
The level of expressed mRNA in the presence of chemical substance/The level of expressed mRNA in the absence of chemical substance (yeast gene YPL089C): 0.8
The level of expressed mRNA in the presence of chemical substance/The level of expressed mRNA in the absence of chemical substance (yeast gene YPL109C): 1.2
The level of expressed mRNA in the presence of chemical substance/The level of expressed mRNA in the absence of chemical substance (yeast gene YPL149W): 0.9
The level of expressed mRNA in the presence of chemical substance/The level of expressed mRNA in the absence of chemical substance (yeast gene YPL154C): 3.5
The level of expressed mRNA in the presence of chemical substance/The level of expressed mRNA in the absence of chemical substance (yeast gene YPR103W): 1.2
The level of expressed mRNA in the presence of chemical substance/The level of expressed mRNA in the absence of chemical substance (yeast gene YPR108W): 1.5
